Source: paper PMC10122656, “Siglec-6 mediates the uptake of extracellular vesicles through a noncanonical glycolipid binding pocket” (Nature Communications, 2023)
Where “and” joins values, the source holds several entries; their conditions need not be identical. Equal values may be shown once.

Columns and labels:
naïve B-cells = assay: Liposome binding to peripheral blood naïve B-cells by flow cytometry; type: cell-based, human; conditions: sheet Figure S29, 5% GM3-DAG liposomes; cells not given
Description: (§1) 200,000 cells/well were plated into a 96-well U-bottom microplate and centrifuged at 300 × g for 5 min. The cells were then resuspended in 50 µL of 50 µM liposome/50 µg/mL (protein concentration) of EV solution in DMEM F12 5% FBS and incubated at 37 °C for 30 min. Excess liposomes were then removed via centrifuged at 300 × g for 5 min followed by washing the cells with FACS solution. The cells were then resuspended in (1:250 V/V) anti-Siglec-flow buffer (1% V/V FBS, 500 µM, EDTA Hank’s Balanced Salt Solution pH 7.4), solution and left to rest on ice for 30 min. The cells were then centrifuged again at 300 × g for 5 min and the cells were resuspended in FACS buffer solution and were then ready for analysis by flow cytometry. Information regarding antibody clone, catalog number supplier, label isotype, and dilution can be found in Supplementary Table 6. The Siglec-positive cells were gated on for liposome-binding analysis (Supplementary Fig. 1b).
(§2) Flow cytometry measurements were collected on a 5-laser Fortessa X-20 (BD Bioscience). All the resulting data were analyzed using FlowJo (10.5.3) software (BD Biosciences).

[1] = molecular target: T1, CHO cells expressing Siglec-6 mutants (C46A, C172A, R to A mutants, F93A, L95A, G175M) (Homo sapiens, UniProt O43699, E173A); assay: Cell assay (liposome/EV binding, flow cytometry); type: cell-based; conditions: sheet Figure S28b, 3% GM3-DAG liposomes, E173A;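 note: AF647 fluorescence intensity from 0.1 mol% AF647–PEG45–DSPE in liposomes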
T1 construct: These new CHO cell lines are the full-length versions of the Siglecs; expressed in transfected cells
T1 sequence (O43699 27-453 E173A): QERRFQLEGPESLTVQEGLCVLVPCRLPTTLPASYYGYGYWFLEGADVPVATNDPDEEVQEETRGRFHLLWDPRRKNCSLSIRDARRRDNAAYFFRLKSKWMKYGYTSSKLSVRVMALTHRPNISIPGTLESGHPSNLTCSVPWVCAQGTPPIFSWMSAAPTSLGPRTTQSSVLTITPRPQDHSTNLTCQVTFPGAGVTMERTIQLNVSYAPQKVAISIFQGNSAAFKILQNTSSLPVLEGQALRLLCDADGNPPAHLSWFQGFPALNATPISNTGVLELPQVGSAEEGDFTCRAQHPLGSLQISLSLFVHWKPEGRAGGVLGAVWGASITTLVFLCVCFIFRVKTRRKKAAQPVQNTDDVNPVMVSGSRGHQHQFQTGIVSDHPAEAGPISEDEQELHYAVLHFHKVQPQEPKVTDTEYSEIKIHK
Description: (§3) Mutations were introduced into each Siglec via gene overlap extension PCR mutagenesis (primers were ordered through IDT). Mutagenesis primers can be found in Supplementary Tables 2 and 3 for the critical arginine mutants of the entire Siglec family and the additional Siglec-6 mutants respectively.
as §1, §2

[2] = molecular target: T2, CHO cells expressing Siglec-6 mutants (C46A, C172A, R to A mutants, F93A, L95A, G175M) (Homo sapiens, UniProt O43699, C172A); assay: Cell assay (liposome/EV binding, flow cytometry); type: cell-based; conditions: sheet Figure S26a, 3% GM3-DAG liposomes, C172A;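 note: AF647 fluorescence intensity from 0.1 mol% AF647–PEG45–DSPE in liposomes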
T2 construct: These new CHO cell lines are the full-length versions of the Siglecs; expressed in transfected cells
T2 sequence (O43699 27-453 C172A): as the sequence (O43699 27-453 E173A) above, with C146A, A147E counted along it
Description: as §3, §1, §2

WT Siglec-6 = WT Siglec-6 (Homo sapiens, UniProt O43699); assay: Binding competition between GM1 GLLs and 5 nGLLs; conditions: 1 mol% GM1 liposomes
Sequence of WT Siglec-6 (O43699 27-453): as the sequence (O43699 27-453 E173A) above, with A147E counted along it
From the text: Supplementary Fig. 20: Binding competition between GM1 GLLs and 5 nGLLs against WT Siglec-6.
Binding of 1 mol% GM1 liposomes to WT Siglec-6 in the presence of an increasing concentration of 5 mol%
5 nGLLs. Data is presented with a representative flow cytometry histogram and was quantified as the mean
± one standard deviation of the median fluorescent intensity (MFI) from […] three technical replicates. A
Brown-Forsythe and Welch one-way ANOVA was used to compare the binding of liposomes formulated
(1 picture or pasted object on this page, not shown here)

LAD2 cells = assay: Liposome/EV binding to LAD2 cells by flow cytometry; type: cell-based, human
Description: as §1, §2
The LAD2 cell line (a gift from Arnold Kirshenbaum) was cultured in StemPro-34 SFM media (Life Technologies) supplemented with 2 mM L-glutamine, 100 U/ml penicillin, […] streptomycin, and 100 ng/ml recombinant human SCF (PeproTech, Rocky Hill, NJ). […]

[3] = test system: CHO cells expressing Siglec-6/8 chimeras; assay: Cell assay (liposome binding, flow cytometry); type: cell-based, human
Description: as §1, §2
The genes for the constructs containing each domain of Siglec-6 to the two others from Siglec-8 were synthesized by GeneArt and designed with a 5’ NheI and 3’ AgeI site immediately before the start codon and stop codon respectively. […]

Compound	liposome binding, fluorescence signal (replicates) (naïve B-cells)	liposome binding, fluorescence signal (replicates) [1]	liposome binding, fluorescence signal (replicates) [2]	binding of GM1 GLLs to WT Siglec-6 in presence of increasing concentration of 5 mol% 5 nGLLs (WT Siglec-6)	5 nGLL binding to LAD2 cells (LAD2 cells)	5 nGLL binding to LAD2 cells after pre-incubation with a Siglec-6 antibody (LAD2 cells)	5 liposome binding to chimeras with one individual Siglec-6 domain [3]	5 nGLL binding to chimera with the first two domains of Siglec-6 [3]
CCCCCCCCCCCCCCCCOCC(COCCCCCCCCCCCCCCCC)OCc1cn(CCO[C@@H]2O[C@H](CO)[C@@H](O[C@@H]3O[C@H](CO)[C@H](O)[C@H](O[C@]4(C(=O)O)C[C@H](O)[C@@H](NC(C)=O)[C@H]([C@H](O)[C@H](O)CO)O4)[C@H]3O)[C@H](O)[C@H]2O)nn1 [GM3-DAG]	154 and 151 and 136 and 149	1703 and 1773 and 1881 and 1652	837 and 738 and 839 and 676					
CCCCCCCCCCCCCCCCOCC(COCCCCCCCCCCCCCCCC)OCc1cn(CCO[C@@H]2O[C@H](CO)[C@@H](O[C@@H]3O[C@H](CO)[C@H](O)[C@H](O[C@]4(C(=O)O)C[C@H](O)[C@@H](NC(C)=O)[C@H]([C@H](O)[C@H](O)CO)O4)[C@H]3O)[C@H](O)[C@H]2O)nn1 [nGL 5]				decreased	bound robustly	abrogated	none of the three individual Siglec-6 domains supported binding	significantly above background
